We go through two molecules from paper PMC6444013, “Development of a fluorescence-based method for the rapid determination of Zika virus polymerase activity and the screening of antiviral drugs” (Scientific Reports, 2019).

As a reminder, the IC50 is the concentration that inhibits the measured activity by half. A lower IC50 goes with inhibition by little substance.

This experiment has as its target T1, ZIKV RdRp (ZIKV NS5 RdRp domain) (Zika virus, UniProt A0A0X1LH65).
T1 construct: RdRp domain residues 275-903 of NS5, cut from the genome polyprotein; E. coli BL21(DE3)-pRIL; 75 kDa
The experiment in a line: real-time SYTO […] fluorescence polymerization assay. Type of experiment: biochemical.

T1 sequence (A0A0X1LH65 2795-3423): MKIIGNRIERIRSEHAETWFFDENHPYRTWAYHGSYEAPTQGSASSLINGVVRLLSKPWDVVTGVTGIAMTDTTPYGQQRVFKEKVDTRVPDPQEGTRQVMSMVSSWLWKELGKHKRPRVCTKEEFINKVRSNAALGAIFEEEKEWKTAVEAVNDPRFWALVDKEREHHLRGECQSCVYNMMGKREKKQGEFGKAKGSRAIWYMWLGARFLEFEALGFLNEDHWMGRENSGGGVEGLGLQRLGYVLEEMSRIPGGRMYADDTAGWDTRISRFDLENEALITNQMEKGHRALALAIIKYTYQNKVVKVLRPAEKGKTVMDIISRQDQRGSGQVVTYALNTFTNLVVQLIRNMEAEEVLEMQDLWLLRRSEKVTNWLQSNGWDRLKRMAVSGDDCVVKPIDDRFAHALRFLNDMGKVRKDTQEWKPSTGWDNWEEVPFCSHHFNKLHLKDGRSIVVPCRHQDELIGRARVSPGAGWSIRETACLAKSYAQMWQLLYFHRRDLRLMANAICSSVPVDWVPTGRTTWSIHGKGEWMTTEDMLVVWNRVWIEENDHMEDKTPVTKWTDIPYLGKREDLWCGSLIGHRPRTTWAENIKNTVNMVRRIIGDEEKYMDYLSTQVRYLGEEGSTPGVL

Take `NC(=O)c1ncn([C@@H]2O[C@H](CO[P@@](=O)(O)O[P@](=O)(O)OP(=O)(O)O)[C@@H](O)[C@H]2O)n1` [ribavirin 5′-triphosphate]: the IC50 was determined as 946 ± 46 µM.

Regarding `Nc1ncnc2c1ncn2[C@@H]1O[C@H](COP(=O)(O)OP(=O)(O)OP(=O)(O)O)C[C@H]1O` [cordycepin 5′-triphosphate], the IC50 stood at 54 ± 7 µM.
